Test results as given in US7138361B2, “Herbicidal heterocycles” (E. I. du Pont de Nemours and Company, priority 2000, dated 2006).

What was measured:
Assay type in all cases: in vivo
[1] = test system: crabgrass (Digitaria sanguinalis); experiment: Test B preemergence
Method in brief: (§1)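 Pre: seeded pots sprayed, chemical in non-phytotoxic solvent/surfactant mix. Post: plants 2–18 cm, 1–4 leaf, same formulation. Greenhouse 13–15 d; visual % control vs untreated, 0–100 scale.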

rice (Oryza saliva) [2] = experiment: Test B preemergence
Method in brief: as §1

[3] = test system: giant foxtail (Setaria faberii); experiment: Test B preemergence
Method in brief: as §1

[4] = test system: pigweed (Amaranthus retroflexus); experiment: Test B preemergence
Method in brief: as §1

[5] = test system: Surinam grass (Brachiaria decumbens); experiment: Test B preemergence
Method in brief: as §1

[6] = test system: barnyardgrass (Echinochloa crus-galli); experiment: Test B preemergence
Method in brief: as §1

[7] = test system: cocklebur (Xanthium strumarium); experiment: Test B preemergence
Method in brief: as §1

[8] = test system: morning glory (Ipomoea hederacea); experiment: Test B preemergence
Method in brief: as §1

[9] = test system: velvetleaf (Abutilon theophrasti); experiment: Test B preemergence
Method in brief: as §1

corn (Zea mays) [10] = experiment: Test B preemergence
Method in brief: as §1

[11] = test system: lambsquarters (Chenopodium album); experiment: Test B preemergence
Method in brief: as §1

rice (Oryza saliva) [12] = experiment: Test C flooded paddy test; details: for Rice plant response rating: Flooded Paddy, scale 0 to 100, 0 no effect, 100 complete control; for Plant response rating, Rice: flooded paddy test, scale 0 to 100 (0 no effect, 100 complete control)
Method in brief: (§2)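 Each species was cultivated to 2 leaves in flooded paddy pots, then treated. After a greenhouse period of 12–14 days, the plants were scored visually relative to controls from 0 (no effect) to 100 (complete control).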

[13] = test system: duck salad (Heteranthera limosa); experiment: Test C flooded paddy test; details: for Ducksalad plant response rating: Flooded Paddy, scale 0 to 100, 0 no effect, 100 complete control; for Plant response rating, Ducksalad: flooded paddy test, scale 0 to 100 (0 no effect, 100 complete control)
Method in brief: as §2

[14] = test system: barnyardgrass (Echinochloa crus-galli); experiment: Test C flooded paddy test; details: for Barnyardgrass plant response rating: Flooded Paddy, scale 0 to 100, 0 no effect, 100 complete control; for Plant response rating, Barnyardgrass: flooded paddy test, scale 0 to 100 (0 no effect, 100 complete control)
Method in brief: as §2

[15] = test system: smallflower flatsedge (Cyperus difformis); experiment: Test C flooded paddy test; details: for Flatsedge plant response rating: Flooded Paddy, scale 0 to 100, 0 no effect, 100 complete control; for Plant response rating, Flatsedge: flooded paddy test, scale 0 to 100 (0 no effect, 100 complete control)
Method in brief: as §2

rice (Oryza saliva) [16] = experiment: Test B flooded paddy test; details: Rate 1000 g/ha, scale of 0 to 100 where 0 is no effect and 100 is complete control, visually evaluated after 13 to 15 days
Method in brief: (§3)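 2-leaf plants, flooded paddy; greenhouse 13–15 d post-treatment; visual rating vs controls, 0–100 scale (0 = no effect, 100 = complete control); dash = no result.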

[17] = test system: duck salad (Heteranthera limosa); experiment: Test B flooded paddy test; details: Rate 1000 g/ha, scale of 0 to 100 where 0 is no effect and 100 is complete control, visually evaluated after 13 to 15 days
Method in brief: as §3

[18] = test system: barnyardgrass (Echinochloa crus-galli); experiment: Test B flooded paddy test; details: Rate 1000 g/ha, scale of 0 to 100 where 0 is no effect and 100 is complete control, visually evaluated after 13 to 15 days
Method in brief: as §3

[19] = test system: smallflower flatsedge (Cyperus difformis); experiment: Test B flooded paddy test; details: Rate 1000 g/ha, scale of 0 to 100 where 0 is no effect and 100 is complete control, visually evaluated after 13 to 15 days
Method in brief: as §3

[20] = test system: crabgrass (Digitaria sanguinalis); experiment: Test B postemergence; details: 13 to 15 days
Method in brief: as §1

[21] = test system: blackgrass (Alopecurus myosuroides); experiment: Test B postemergence; details: 13 to 15 days
Method in brief: as §1

[22] = test system: wheat (Triticum aestivum); experiment: Test B postemergence; details: 13 to 15 days
Method in brief: as §1

[23] = test system: giant foxtail (Setaria faberii); experiment: Test B postemergence; details: 13 to 15 days
Method in brief: as §1

wild oat (Avena fatua) = experiment: Test B postemergence; details: 13 to 15 days
Method in brief: as §1

[24] = test system: pigweed (Amaranthus retroflexus); experiment: Test B postemergence; details: 13 to 15 days
Method in brief: as §1

[25] = test system: Surinam grass (Brachiaria decumbens); experiment: Test B postemergence; details: 13 to 15 days
Method in brief: as §1

[26] = test system: barnyardgrass (Echinochloa crus-galli); experiment: Test B postemergence; details: 13 to 15 days
Method in brief: as §1

[27] = test system: cocklebur (Xanthium strumarium); experiment: Test B postemergence; details: 13 to 15 days
Method in brief: as §1

[28] = test system: morning glory (Ipomoea hederacea); experiment: Test B postemergence; details: 13 to 15 days
Method in brief: as §1

[29] = test system: velvetleaf (Abutilon theophrasti); experiment: Test B postemergence; details: 13 to 15 days
Method in brief: as §1

corn (Zea mays) [30] = experiment: Test B postemergence; details: 13 to 15 days
Method in brief: as §1

[31] = test system: lambsquarters (Chenopodium album); experiment: Test B postemergence; details: 13 to 15 days
Method in brief: as §1

[32] = Preemergence, Rate 500 g/ha, scale 0 to 100, 0 no effect, 100 complete control
[33] = preemergence, Rate 125 g/ha, scale of 0 to 100 where 0 is no effect and 100 is complete control, 13 to 15 days
[34] = Rate 125 g/ha, scale 0 (no effect) to 100 (complete control)
[35] = Rate 500 g/ha, scale 0 to 100, 0 is no effect, 100 is complete control

## CCC(C)Oc1ccn(C2CCN(c3cccc(C(F)(F)F)c3)C2=O)n1 (stereo not drawn) [Compound 58]
[1]; [32]
  Plant response rating, Crabgrass: 80
[1]; [33]
  Plant response rating, Crabgrass: 0
Rice (Oryza saliva) [2]; [32]
  Plant response rating, Rice: 0
Rice (Oryza saliva) [2]; [33]
  Plant response rating, Rice: 0
[3]; [32]
  Plant response rating, Foxtail, Giant: 70
[3]; [33]
  Plant response rating, Foxtail, Giant: 0
[4]; [32]
  Plant response rating, Pigweed: 0
[4]; [33]
  Plant response rating, Pigweed: 0
[5]; [32]
  Plant response rating, Surinam grass: 0
[5]; [33]
  Plant response rating, Surinam grass: 0
[6]; [32]
  Plant response rating, Barnyardgrass: 70
[6]; [33]
  Plant response rating, Barnyardgrass: 0
[7]; [32]
  Plant response rating, Cocklebur: 0
[7]; [33]
  Plant response rating, Cocklebur: 0
[8]; [32]
  Plant response rating, Morningglory: 0
[8]; [33]
  Plant response rating, Morningglory: 0
[9]; [32]
  Plant response rating, Velvetleaf: 0
Corn (Zea mays) [10]; [32]
  Plant response rating, Corn: 0
Corn (Zea mays) [10]; [33]
  Plant response rating, Corn: 0
[11]; [32]
  Plant response rating, Lambsquarters: 0
[11]; [33]
  Plant response rating, Lambsquarters: 0
Rice (Oryza saliva) [12]; Rate 250 g/ha
  Rice plant response rating: 0
Rice (Oryza saliva) [12]; Rate 500 g/ha
  Rice plant response rating: 0
Rice (Oryza saliva) [12]; Rate 62 g/ha
  Plant response rating, Rice: 0
Rice (Oryza saliva) [12]; Rate 125 g/ha
  Plant response rating, Rice: 0
[13]; Rate 250 g/ha
  Ducksalad plant response rating: 0
[13]; Rate 500 g/ha
  Ducksalad plant response rating: 0
[13]; Rate 62 g/ha
  Plant response rating, Ducksalad: 0
[13]; Rate 125 g/ha
  Plant response rating, Ducksalad: 0
[14]; Rate 250 g/ha
  Barnyardgrass plant response rating: 0
[14]; Rate 500 g/ha
  Barnyardgrass plant response rating: 20
[14]; Rate 62 g/ha
  Plant response rating, Barnyardgrass: 0
[14]; Rate 125 g/ha
  Plant response rating, Barnyardgrass: 0
[15]; Rate 250 g/ha
  Flatsedge plant response rating: 0
[15]; Rate 500 g/ha
  Flatsedge plant response rating: 30
[15]; Rate 62 g/ha
  Plant response rating, Flatsedge: 0
[15]; Rate 125 g/ha
  Plant response rating, Flatsedge: 0
Rice (Oryza saliva) [16]
  Plant response rating, Rice: 20
[17]
  Plant response rating, Ducksalad: 70
[18]
  Plant response rating, Barnyardgrass: 90
[19]
  Plant response rating, Flatsedge: 80
[20]; [34]
  Plant response rating, Crabgrass: 0
[20]; [35]
  Plant response rating, Crabgrass: 0
[21]; [34]
  Plant response rating, Blackgrass: 0
[21]; [35]
  Plant response rating, Blackgrass: 0
[22]; [34]
  Plant response rating, Wheat: 0
[22]; [35]
  Plant response rating, Wheat: 0
[23]; [34]
  Plant response rating, Foxtail, Giant: 0
[23]; [35]
  Plant response rating, Foxtail, Giant: 0
Wild oat (Avena fatua); [34]
  Plant response rating, Wild Oat: 0
Wild oat (Avena fatua); [35]
  Plant response rating, Wild Oat: 0
[24]; [34]
  Plant response rating, Pigweed: 0
[24]; [35]
  Plant response rating, Pigweed: 0
[25]; [34]
  Plant response rating, Surinam grass: 0
[25]; [35]
  Plant response rating, Surinam grass: 0
[26]; [34]
  Plant response rating, Barnyardgrass: 0
[26]; [35]
  Plant response rating, Barnyardgrass: 0
[27]; [34]
  Plant response rating, Cocklebur: 0
[27]; [35]
  Plant response rating, Cocklebur: 0
[28]; [34]
  Plant response rating, Morningglory: 0
[28]; [35]
  Plant response rating, Morningglory: 0
[29]; [34]
  Plant response rating, Velvetleaf: 0
[29]; [35]
  Plant response rating, Velvetleaf: 0
Corn (Zea mays) [30]; [34]
  Plant response rating, Corn: 0
Corn (Zea mays) [30]; [35]
  Plant response rating, Corn: 0
[31]; [34]
  Plant response rating, Lambsquarters: 0
[31]; [35]
  Plant response rating, Lambsquarters: 0

## CC(C)Oc1ccn(C2CCN(c3cccc(C(F)(F)F)c3)C2=O)n1 (stereo not drawn) [Compound 59]
[1]; [32]
  Plant response rating, Crabgrass: 90
[1]; [33]
  Plant response rating, Crabgrass: 20
Rice (Oryza saliva) [2]; [32]
  Plant response rating, Rice: 50
Rice (Oryza saliva) [2]; [33]
  Plant response rating, Rice: 0
[3]; [32]
  Plant response rating, Foxtail, Giant: 70
[3]; [33]
  Plant response rating, Foxtail, Giant: 0
[4]; [32]
  Plant response rating, Pigweed: 0
[4]; [33]
  Plant response rating, Pigweed: 0
[5]; [32]
  Plant response rating, Surinam grass: 80
[5]; [33]
  Plant response rating, Surinam grass: 60
[6]; [32]
  Plant response rating, Barnyardgrass: 90
[6]; [33]
  Plant response rating, Barnyardgrass: 0
[7]; [32]
  Plant response rating, Cocklebur: 0
[7]; [33]
  Plant response rating, Cocklebur: 0
[8]; [32]
  Plant response rating, Morningglory: 0
[8]; [33]
  Plant response rating, Morningglory: 0
[9]; [32]
  Plant response rating, Velvetleaf: 0
[9]; [33]
  Plant response rating, Velvetleaf: 0
Corn (Zea mays) [10]; [32]
  Plant response rating, Corn: 0
Corn (Zea mays) [10]; [33]
  Plant response rating, Corn: 0
[11]; [32]
  Plant response rating, Lambsquarters: 100
[11]; [33]
  Plant response rating, Lambsquarters: 0
Rice (Oryza saliva) [12]; Rate 250 g/ha
  Rice plant response rating: 0
Rice (Oryza saliva) [12]; Rate 500 g/ha
  Rice plant response rating: 20
Rice (Oryza saliva) [12]; Rate 62 g/ha
  Plant response rating, Rice: 0
Rice (Oryza saliva) [12]; Rate 125 g/ha
  Plant response rating, Rice: 0
[13]; Rate 250 g/ha
  Ducksalad plant response rating: 0
[13]; Rate 500 g/ha
  Ducksalad plant response rating: 0
[13]; Rate 62 g/ha
  Plant response rating, Ducksalad: 0
[13]; Rate 125 g/ha
  Plant response rating, Ducksalad: 0
[14]; Rate 250 g/ha
  Barnyardgrass plant response rating: 0
[14]; Rate 500 g/ha
  Barnyardgrass plant response rating: 30
[14]; Rate 62 g/ha
  Plant response rating, Barnyardgrass: 0
[14]; Rate 125 g/ha
  Plant response rating, Barnyardgrass: 0
[15]; Rate 250 g/ha
  Flatsedge plant response rating: 0
[15]; Rate 500 g/ha
  Flatsedge plant response rating: 30
[15]; Rate 62 g/ha
  Plant response rating, Flatsedge: 0
[15]; Rate 125 g/ha
  Plant response rating, Flatsedge: 0
Rice (Oryza saliva) [16]
  Plant response rating, Rice: 20
[17]
  Plant response rating, Ducksalad: 70
[18]
  Plant response rating, Barnyardgrass: 100
[19]
  Plant response rating, Flatsedge: 90
[20]; [34]
  Plant response rating, Crabgrass: 0
[20]; [35]
  Plant response rating, Crabgrass: 0
[21]; [34]
  Plant response rating, Blackgrass: 0
[21]; [35]
  Plant response rating, Blackgrass: 0
[22]; [34]
  Plant response rating, Wheat: 0
[22]; [35]
  Plant response rating, Wheat: 0
[23]; [34]
  Plant response rating, Foxtail, Giant: 0
[23]; [35]
  Plant response rating, Foxtail, Giant: 0
Wild oat (Avena fatua); [34]
  Plant response rating, Wild Oat: 0
Wild oat (Avena fatua); [35]
  Plant response rating, Wild Oat: 0
[24]; [34]
  Plant response rating, Pigweed: 0
[24]; [35]
  Plant response rating, Pigweed: 0
[25]; [34]
  Plant response rating, Surinam grass: 0
[25]; [35]
  Plant response rating, Surinam grass: 0
[26]; [34]
  Plant response rating, Barnyardgrass: 0
[26]; [35]
  Plant response rating, Barnyardgrass: 0
[27]; [34]
  Plant response rating, Cocklebur: 0
[27]; [35]
  Plant response rating, Cocklebur: 0
[28]; [34]
  Plant response rating, Morningglory: 0
[28]; [35]
  Plant response rating, Morningglory: 0
[29]; [34]
  Plant response rating, Velvetleaf: 0
[29]; [35]
  Plant response rating, Velvetleaf: 0
Corn (Zea mays) [30]; [34]
  Plant response rating, Corn: 0
Corn (Zea mays) [30]; [35]
  Plant response rating, Corn: 0
[31]; [34]
  Plant response rating, Lambsquarters: 0
[31]; [35]
  Plant response rating, Lambsquarters: 0
